Results from patent EP0336753A1, “Improvements in or relating to propanamine derivatives” (ELI LILLY AND COMPANY, priority 1988, dated 1989).
Like-named read-outs stand apart in the source and are kept apart here.

What was measured:
serotonin (5HT) uptake = molecular target: T1, serotonin (5HT) uptake (Rattus norvegicus, UniProt P31652); experiment: Inhibition of synaptosomal uptake of 3H-serotonin in vitro; format: biochemical, rats; settings: for inhibition at 1 µM: 1000 nM test compound, number in parentheses, read-out: percent inhibition at 1000 nM (5HT)
T1 construct: Crude synaptosomal preparations were isolated after differential centrifugation; from tissue; host or cells: rat cerebral cortex, crude synaptosomes
T1 sequence (P31652 whole entry): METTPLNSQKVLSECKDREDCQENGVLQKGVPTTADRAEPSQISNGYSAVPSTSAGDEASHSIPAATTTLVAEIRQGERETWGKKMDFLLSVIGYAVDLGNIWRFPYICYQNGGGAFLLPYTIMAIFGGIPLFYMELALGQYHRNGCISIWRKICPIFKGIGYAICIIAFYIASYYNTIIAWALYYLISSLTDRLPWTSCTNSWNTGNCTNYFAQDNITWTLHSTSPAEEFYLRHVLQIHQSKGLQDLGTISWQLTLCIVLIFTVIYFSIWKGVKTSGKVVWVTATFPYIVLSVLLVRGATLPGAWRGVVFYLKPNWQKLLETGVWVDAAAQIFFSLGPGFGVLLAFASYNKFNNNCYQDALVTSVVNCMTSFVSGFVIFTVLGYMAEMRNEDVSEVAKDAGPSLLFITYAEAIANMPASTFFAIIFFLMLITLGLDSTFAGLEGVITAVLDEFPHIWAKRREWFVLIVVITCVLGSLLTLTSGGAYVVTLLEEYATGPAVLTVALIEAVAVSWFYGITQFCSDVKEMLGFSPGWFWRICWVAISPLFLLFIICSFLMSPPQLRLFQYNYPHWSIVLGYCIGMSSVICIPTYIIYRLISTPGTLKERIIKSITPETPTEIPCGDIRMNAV
Procedure: (§1) This general procedure is set forth by Wong et al., in Drug Development Research 6:397-403 (1985).
(§2) Male Sprague-Dawley rats (110-150 g) from Harlan Industries (Cumberland, IN) were fed a Purina Chow ad libitum for at least 3 days before being used in the studies. Rats were killed by decapitation. Whole brains were removed and dissected. Cerebral cortex was homogenized in 9 volumes of a medium containing 0.32 M sucrose and 10 mM glucose. Crude synaptosomal preparations were isolated after differential centrifugation at 1,000 g for 10 min. and 17,000 g for 28 min. The final pellets were suspended in the same medium and kept in ice until use within the same day.
(§3) Synaptosomal uptake of ³H-serotonin(³H-5-hydroxytryptamine, ³H-5HT) and ¹⁴C-ℓ-norepinephrine (¹⁴C-NE) was determined as follows. Cortical synaptosomes (equivalent to 1 mg of protein) were incubated at 37°C for 5 min in 1 ml of Krebs-bicarbonate medium containing also 10 mM glucose, 0.1 mM iproniazid, 1 mM ascorbic acid, 0.17 mM EDTA, 50nM, ³H-5HT and 100 nM ¹⁴C-NE. The reaction mixture was immediately diluted with 2 ml of ice-chilled Krebs-bicarbonate buffer and filtered under vacuum with a cell harvester (Brandel, Gaithersburg, MD). Filters were rinsed twice with approximately 5 ml of ice-chilled 0.9% saline and were transferred to a counting vial containing 10 ml of scintillation fluid (PCS, Amersham, Arlington Heights, IL). Radioactivity was measured by a liquid scintillation spectrophotometer. Accumulation of ³H-5HT and ¹⁴C-NE at 4°C represented the background and was subtracted from all samples.
(§4) The results of the evaluation of various compounds of the present invention are set forth below in Table I. In the Table, column 1 identifies the Example number of the compounds evaluated, and columns 2 and 3 provide the concentration of the test compound at 10⁻⁹M (nM) needed to inhibit 50% of serotonin (5HT) or norepinephrine, respectively, and is indicated in the Table as IC₅₀. The numbers in parentheses represent percent inhibition at 1000 nM.

[1] = molecular target: T2, norepinephrine (NE) uptake (Rattus norvegicus, UniProt Q63380); experiment: Inhibition of synaptosomal uptake of 14C-l-norepinephrine in vitro; format: biochemical, rats; settings: for inhibition at 1 µM: read-out: percent inhibition at 1000 nM (NE); for IC50: 100 nM ¹⁴C-NE, 37°C for 5 min, read-out: IC₅₀(nM) NE
T2 construct: Crude synaptosomal preparations were isolated after differential centrifugation; from tissue; host or cells: rat cerebral cortex, crude synaptosomes
T2 sequence (Q63380 1-617): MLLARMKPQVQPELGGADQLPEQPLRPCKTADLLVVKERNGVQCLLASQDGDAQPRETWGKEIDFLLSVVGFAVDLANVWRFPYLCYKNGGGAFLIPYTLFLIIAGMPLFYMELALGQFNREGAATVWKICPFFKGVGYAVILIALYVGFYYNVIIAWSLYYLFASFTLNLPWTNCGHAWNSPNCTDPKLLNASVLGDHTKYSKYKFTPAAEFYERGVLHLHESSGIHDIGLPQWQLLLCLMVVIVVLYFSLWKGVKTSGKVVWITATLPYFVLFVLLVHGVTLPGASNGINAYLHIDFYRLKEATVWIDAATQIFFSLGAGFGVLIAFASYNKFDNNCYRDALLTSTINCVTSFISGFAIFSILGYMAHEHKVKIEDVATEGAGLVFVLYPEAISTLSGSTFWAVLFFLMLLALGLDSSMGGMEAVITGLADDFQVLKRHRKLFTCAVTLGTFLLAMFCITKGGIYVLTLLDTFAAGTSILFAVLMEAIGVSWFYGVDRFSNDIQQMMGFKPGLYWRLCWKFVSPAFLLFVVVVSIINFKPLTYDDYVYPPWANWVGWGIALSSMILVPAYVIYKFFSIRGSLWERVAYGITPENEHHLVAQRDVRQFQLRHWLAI
Procedure: as §1, §2, §3, §4

[2] = rat cerebral cortex synaptosomes
[3] = 1000 nM test compound, number in parentheses, rat cerebral cortex synaptosomes

CN(C)CCC(Oc1ccc(NS(C)(=O)=O)cc1)c1ccccc1 (centres unmarked) [Example 5, N-{4-[1-Phenyl-3-(dimethylamino)propoxy]phenyl}methanesulfonamide]
IC50 (serotonin (5HT) uptake): > 1000 nM
inhibition at 1 µM (serotonin (5HT) uptake; [2]): 30%
inhibition at 1 µM [1, 3]: 15%
IC50 [1, 2]: > 1000 nM

CN(C)CCC(Oc1ccc(S(N)(=O)=O)cc1)c1ccccc1 (centres unmarked) [Example 4, 4-[3-(Dimethylamino)-1-phenylpropoxy]benzenesulfonamide ethanedioate]
IC50 (serotonin (5HT) uptake): > 1000 nM
inhibition at 1 µM (serotonin (5HT) uptake; [2]): 15%
IC50 [1, 2]: > 1000 nM
inhibition at 1 µM [1]: 0%

CSc1ccc(OC(CCN(C)C)c2ccccc2)cc1 (centres unmarked) [Example 1, N,N-Dimethyl-γ-[4-(methylthio)phenoxy]benzenepropanamine ethanedioate]
IC50 (serotonin (5HT) uptake): 160 nM
IC50 [1, 2]: > 1000 nM
inhibition at 1 µM [1]: 18%

CNCCC(Oc1ccc(SC(F)(F)F)cc1)c1ccccc1 (centres unmarked) [Example 3, N-Methyl-γ-{4-[trifluoromethyl)thio]phenoxy}benzenepropanamine ethanedioate]
inhibition at 1 µM (serotonin (5HT) uptake; [2]): 39%
IC50 (serotonin (5HT) uptake; rat cerebral cortex synaptosomes, 50 nM ³H-5HT, 37°C for 5 min, read-out: IC₅₀(nM) 5HT): > 1000 nM
inhibition at 1 µM [1, 3]: 9%
IC50 [1, 2]: > 1000 nM

CNCCC(Oc1ccc(SC)cc1)c1ccccc1 (centres unmarked) [Example 2, N-Methyl-γ-[4-(methylthio)phenoxy]benzenepropanamine ethanedioate]
IC50 (serotonin (5HT) uptake): 48 nM
IC50 [1, 2]: 704 nM
